Values quoted from earlier work, collected in patent US7332183B2, “Multilayer dosage forms containing NSAIDs and triptans” (Pozen Inc., priority 2002, dated 2008).

settings: in vivo

Structure (SMILES)	half life
CCc1cccc2c3c([nH]c12)C(CC)(CC(=O)O)OCC3 (stereo not shown) [etodolac]	about 7 hours
CS(=O)(=O)c1ccc(C2=C(c3ccccc3)C(=O)OC2)cc1 [rofecoxib]	about 17 hours
Cc1cccc(Nc2ccccc2C(=O)O)c1C [mefanamic acid]	about 4 hours
CC(C(=O)O)c1ccc(-c2ccccc2)c(F)c1 (stereo not shown) [flurbiprofen]	about 6 hours
